Measured values taken from patent US8551984B2, “Aminopyrimidines as SYK inhibitors” (Merck Sharp & Dohme Corp., priority 2009, dated 2013).

Target: rhSYK (Homo sapiens, UniProt P43405)
Assay: biochemical

| Structure (SMILES) | IC50 |
| --- | --- |
| Cc1cc(Nc2nccc(C)n2)cc(-c2cnc(C3(O)CCC(C(N)=O)C4CCCCC43)s2)c1 (stereo not shown) [Example 117-2] | < 100 nM |
| Cc1cc(Nc2nccc(C(F)(F)F)n2)cc(-c2cnc([C@H]3CC[C@@H](C(N)=O)CC3)s2)c1 [Example 117-4] | < 100 nM |
| Cc1cc(Nc2nccc(C(F)(F)F)n2)cc(-c2cnc([C@H]3CC[C@H](C(N)=O)CC3)s2)c1 [Example 117-5] | < 100 nM |
| Cc1cc(Nc2nccc(C(F)(F)F)n2)cc(-c2cnc(C3(O)CCN(c4ncccc4C(N)=O)CC3)s2)c1 [Example 117-6] | < 100 nM |
| Cc1cc(Nc2nccc(C(F)(F)F)n2)cc(-c2cnc(C3(O)CCN(CCCC(N)=O)CC3)s2)c1 [Example 117-7] | < 100 nM |
| Cc1cc(Nc2nccc(C(F)(F)F)n2)cc(-c2cnc(C3(O)CCC(CC(N)=O)CC3)s2)c1 (stereo not shown) [Example 117-8] | < 100 nM |
| Cc1cc(Nc2nccc(C(F)(F)F)n2)cc(-c2cnc([C@]3(O)CC[C@@H](CCC(N)=O)CC3)s2)c1 [Example 117-11] | < 100 nM |
| Cc1cc(Nc2nccc(C(F)(F)F)n2)cc(-c2cnc([C@]3(O)CC[C@H](CCC(N)=O)CC3)s2)c1 [Example 117-12] | < 100 nM |
| Cc1cc(Nc2nccc(C(C)C)n2)cc(-c2cnc(C3(O)CCCN(C(=O)CC(N)=O)CC3)s2)c1 (stereo not shown) [Example 117-13] | < 100 nM |
| Cc1cc(Nc2nccc(OCCO)n2)cc(-c2cnc(CCC(N)=O)s2)c1 [Example 117-14] | < 100 nM |
| CCC(CO)NC(=O)CCc1ncc(-c2cc(C)cc(Nc3nccc(C(F)(F)F)n3)c2)s1 (stereo not shown) [Example 117-15] | < 100 nM |
| CCOC(=O)CNC(=O)CCc1ncc(-c2cc(C)cc(Nc3nccc(C(F)(F)F)n3)c2)s1 [Example 117-16] | < 100 nM |
| COC(=O)C(C)NC(=O)CCc1ncc(-c2cc(C)cc(Nc3nccc(C(F)(F)F)n3)c2)s1 (stereo not shown) [Example 117-17] | < 100 nM |
| COC(=O)CCNC(=O)CCc1ncc(-c2cc(C)cc(Nc3nccc(C(F)(F)F)n3)c2)s1 [Example 117-18] | < 100 nM |
| COC(=O)C(CC(C)C)NC(=O)CCc1ncc(-c2cc(C)cc(Nc3nccc(C(F)(F)F)n3)c2)s1 (stereo not shown) [Example 117-19] | 100 to 1000 nM |
| Cc1cc(Nc2nccc(C(F)(F)F)n2)cc(-c2cnc([C@@]3(O)CC[C@H](C(N)=O)C(C)(C)C3)s2)c1Br [Example 117-22] | < 100 nM |
| Cc1cc(Nc2nccc(C)n2)cc(-c2cnc(C3(O)CCC(C(N)=O)C(C)(C)C3)s2)c1 (stereo not shown) [Example 119-7] | < 100 nM |

| Structure (SMILES) | IC50 |
| --- | --- |
| Cc1cc(Nc2nccc(C(C)C)n2)cc(-c2cnc([C@]3(O)CC[C@@H](C(N)=O)CC3)s2)c1 [Example 119-8] | < 100 nM |
| Cc1cc(Nc2nccc(C(C)(C)C)n2)cc(-c2cnc(C3(O)CCC(C(N)=O)CC3)s2)c1 (stereo not shown) [Example 119-9] | < 100 nM |
| Cc1cc(Nc2nccc(C(C)C)n2)cc(-c2cnc(C3(O)CCC(C(N)=O)C(C)C3)s2)c1 (stereo not shown) [Example 119-10] | < 100 nM |
| Cc1cc(Nc2nccc(OCCO)n2)cc(-c2cnc(C3(O)CCC(C(N)=O)CC3)s2)c1 (stereo not shown) [Example 119-14] | < 100 nM |
| CNC(=O)C1CCC(O)(c2ncc(-c3cc(C)cc(Nc4nccc(C(F)(F)F)n4)c3)s2)CC1 (stereo not shown) [Example 119-15] | < 100 nM |
| Cc1cc(Nc2nccc(C(F)(F)F)n2)cc(-c2cnc([C@]3(O)CC[C@@H](C(=O)N(C)C)CC3)s2)c1 [Example 119-17] | < 100 nM |
| Cc1cc(Nc2nccc(C(F)(F)F)n2)cc(-c2cnc(C3(O)CCC(C(=O)NCC#N)CC3)s2)c1 (stereo not shown) [Example 119-18] | < 100 nM |
| Cc1cc(Nc2nccc(C(F)(F)F)n2)cc(-c2cnc([C@]3(O)CC[C@@H](C(=O)N4CCC4)CC3)s2)c1 [Example 119-19] | < 100 nM |
| Cc1cc(Nc2nccc(C(F)(F)F)n2)cc(-c2cnc([C@]3(O)CC[C@@H](C(=O)NC(C)C)CC3)s2)c1 [Example 119-20] | < 100 nM |
| CCN(C)C(=O)[C@H]1CC[C@](O)(c2ncc(-c3cc(C)cc(Nc4nccc(C(F)(F)F)n4)c3)s2)CC1 [Example 119-21] | < 100 nM |
| Cc1cc(Nc2nccc(C(F)(F)F)n2)cc(-c2cnc([C@]3(O)CC[C@@H](C(=O)NCCO)CC3)s2)c1 [Example 119-22] | < 100 nM |
| Cc1cc(Nc2nccc(C(F)(F)F)n2)cc(-c2cnc([C@]3(O)CC[C@@H](C(=O)NCC4CC4)CC3)s2)c1 [Example 119-23] | < 100 nM |
| Cc1cc(Nc2nccc(C(F)(F)F)n2)cc(-c2cnc([C@]3(O)CC[C@@H](C(=O)N4CCCC4)CC3)s2)c1 [Example 119-24] | < 100 nM |
| COCCNC(=O)[C@H]1CC[C@](O)(c2ncc(-c3cc(C)cc(Nc4nccc(C(F)(F)F)n4)c3)s2)CC1 [Example 119-25] | < 100 nM |
| Cc1cc(Nc2nccc(C(F)(F)F)n2)cc(-c2cnc([C@]3(O)CC[C@@H](C(=O)NCC(=O)O)CC3)s2)c1 [Example 119-26] | < 100 nM |
| Cc1cc(Nc2nccc(C(F)(F)F)n2)cc(-c2cnc([C@]3(O)CC[C@@H](C(=O)Nc4ncc[nH]4)CC3)s2)c1 [Example 119-27] | < 100 nM |
| Cc1cc(Nc2nccc(C(F)(F)F)n2)cc(-c2cnc(C3(O)CCC(C(=O)N(C)CCC#N)CC3)s2)c1 (stereo not shown) [Example 119-28] | < 100 nM |
